Entries after “also recorded” stand apart in the source; their conditions may differ. Marks after values point to notes of the source that are not given here.

As a reminder, the EC50 is the concentration giving half of the maximal effect.

The subject of data set [1] is T cell tropic NL4.3 strain of HIV-1. The experiment in a line: Antiviral efficacy: MT-2 cells infected with HIV-1 NL4.3, cell viability by MTS after 6 days (IC50). Type of data set: cell-based. The following applies: for EC50: MT-2 cells infected with HIV-1 NL4.3, 6 days, MTS viability; for anti-HIV activity compared with SPL7013: MT-2 cells, HIV-1 NL4.3, comparison with homogenous surface dendrimer SPL7013 (Table 24). On the procedure:
MT-2 cells are infected with the T cell tropic NL4.3 strain of HIV-1 in the presence of 6, 5-fold serial concentrations of compound in triplicate wells of a 96 well plate. In the same plate, cells are exposed to the same drug concentrations in the absence of virus to determine the cytotoxic concentrations of the compound. […] Antimicrob Agents Chemother.
After 6 days incubation at 37° C. in a CO2 incubator, cell viability of both virus-infected and uninfected cells is determined by incubating cells for 3-4 hours with 3-(4,5-dimethylthiazol-2-yl)-5-(3-carboxymethoxyphenyl)-2-(4-sulfophenyl)-2H-tetrazolium (MTS) according to manufacturer's instructions (CellTiter 96 AQueous One Solution Cell Proliferation assay (Promega, Madison Wis.)).

A short description of data set [2]: Plasma clearance studies for radiolabelled (tritiated) macromolecules: plasma, urine, faeces and organ tritium after 5 mg/kg intravenous dose. As to conditions: rats; for plasma T½: tritiated macromolecule; for % of 3H dose excreted in total urine: urine collected 0-30 hr. Type of data set: in vivo. As for the experimental part: Tritiated poly-lysine macromolecules were dissolved in phosphate buffered saline (PBS), pH 7.4) and frozen until required. Rats were intravenously administered 5 mg/kg of macromolecule via an indwelling cannula (implanted in the jugular vein) over 2 min.
Immediately following dosing, a blood sample (t=0) was collected via an indwelling carotid artery cannula and placed in a heparinised eppendorf tube.
Blood samples were then collected at predetermined intervals for the following 30 hr, and the plasma separated. In addition, urine and faeces were collected at 0-8 hr, 8-24 hr and 24-30 hr. At sacrifice (30 hr after the intravenous dose) the major organs (liver, kidneys, spleen, pancreas, heart, lung and brain) were collected and weighed. The tritium content of plasma, urine, faeces and the various tissue samples were determined using validated scintillation assays.

The test system of data set [3] is T cell tropic NL4.3 strain of HIV-1. The following applies: positive control of the assay; Dezzutti et al. 2004; cited from earlier work.

Take “BHALys[GlyLys]2[Lys]4[Boc]6[ε,ε-COCH2O-3,6-Naph (SO3Na)2]2 [Example 49]”: the EC50 in data set [1] stood at 2.2 µg/mL. As for “BHALys[GlyLys]2[Lys]4[COCH2O-3,6-Naph(SO3Na)2]6 [ε,ε-CBz]2 [Example 48]”, in data set [1], the 50% effective concentration (EC50) is 0.13 µg/mL and the “anti-HIV activity compared with SPL7013” value was “considerably more active than SPL7013; also recorded: significantly more active than SPL7013”. “BHALys[GlyLys]2[Lys]4[α,α-Boc]2[ε,α-COCH2O-3,6-Naph(SO3Na)2]2[ε,ε-COCH2O-3,6-Naph(SO3Na)2]2 [Example 42]” had a concentration giving a half-maximal response (EC50) in data set [1] of 10.6 µg/mL. On the same count and under the same terms, then “BHALys[GlyLys]2[Lys]4[α,α-COCH2O-3,6-Naph(SO3Na)2]2[α,ε-COCH2O-3,6-Naph(SO3Na)2]2[ε,α-COC5H12]2[ε,ε-COC5H12]2 [Example 43]”, with 0.24 µg/mL; and “BHALys[Lys]2[GlyLys]4[Lys]8[α,α-Boc]4[α,ε-Boc]4[ε,α-COCH2O-3,6-Naph(SO3Na)2]4 [ε,ε-COCH2O-3,6-Naph(SO3Na)2]4 [Example 44]”, with 0.33 µg/mL. The same measure, in the same setting: as for “BHALys[Lys]2[GlyLys]4[Lys]8[α,α-COCH2O-3,6-Naph(SO3Na)2]4[α,εCOCH2O-3,6-Naph(SO3Na)2]4[ε,α-COC5H12]4[ε,ε-COC5H12]4 [Example 45]”, the figure is 0.37 µg/mL. “BHALys[Lys]2[α,ε-Lys][CBz]2[Lys]3 [COCH2O-3,6-Naph(SO3Na)2]6 [Example 46]”: in data set [1], the EC50 was 0.14 µg/mL and the “anti-HIV activity compared with SPL7013” value was “considerably more active than SPL7013; also recorded: significantly more active than SPL7013”. Turning to “BHALys[Lys]2[α,ε-Lys][COCH2O-3,6-Naph(SO3Na)2]2[Lys]3 [Boc]6 [Example 47]”, the EC50 in data set [1] was above 50 µg/mL. Turning to “BHALys[Lys]4[Su(NPN)2]8[γ-CO-MTX-α-OtBu]8[COPEG24]8 [Example 60]”, the “plasma T½” value in data set [2] is reported as 3.9 ± 0.1^a h.

In data set [1], “BHALys[Lys]4[α-CO-4-PhSO3Na]4[ε-COC5H12]4 [Example 31]” displayed an EC50 of 344 µg/mL.

Substance “BHALys[Lys]4[α-COC5H12]4[ε-COCH2O-3,6-Naph(SO3Na)2]4 [Example 30]” had an EC50 in data set [1] of 58.3 µg/mL. “BHALys[Lys]4[α-COCH2O-3,6-Naph(SO3Na)2]4[ε-COC5H12]4 [Example 29]” had an EC50 in data set [1] of 23.8 µg/mL. In the case of BHALys[Lys]8[PEG2KD]16 [Example 54], in data set [2], the “plasma T½” value stood at 23.90 ± 2.56 h and the “% of 3H dose excreted in total urine” value is 26.0 ± 4.6%. With BHALys[Lys]8[PEG200]16 [Example 51], in data set [2], the “plasma T½” value stood at 0.25 ± 0.04 h and the “% of 3H dose excreted in total urine” value is recorded as 82.2 ± 6.4%.

“BHALys[Lys]8[Su(NPN)2]16 [γ-CO-MTX-α-OtBu]16 [COPEG12]16 [Example 58]”: in data set [2], the “plasma T½” value is recorded as 9.0 ± 0.2^a h. In the case of “BHALys[Lys]8[Su(NPN)2]16 [γ-CO-MTX-α-OtBu]16 [COPEG24]16 [Example 61]”, the “plasma T½” value in data set [2] was 21.0 ± 1.7 h. The same measure, in the same setting: as for “BHALys[Lys]8[Su(NPN)2]16 [γ-CO-MTX-α-OtBu]16 [COPEG2300]16 [Example 63]”, the figure is 34.1 ± 1.1 h. The substance “BHALys[Lys]8[α-CO2PEG3]8[ε-CO-3,5-Ph(SO3Na)2]8 [Example 34]” returned an EC50 in data set [1] of 84.5 µg/mL. Same read-out and setting: then “BHALys[Lys]8[α-CO2PEG3]8[ε-CO-4-PhSO3Na]8 [Example 35]”, with above 500 µg/mL; and “BHALys[Lys]8[α-CO-3,5-Ph(SO3Na)2]8[ε-CBz]8 [Example 37]”, with 2 µg/mL. With “BHALys[Lys]8[α-CO-4-Ph(SO3Na)]8[ε-CBz]8 [Example 38]”, the concentration for a half-maximal effect (EC50) in data set [1] is 2.2 µg/mL. “BHALys[Lys]8[α-COCH2O-3,6-Naph(SO3Na)2]8[ε-CBz]8 [Example 36]” returned an EC50 in data set [1] of 3.2 µg/mL. As to BHALys[Lys]16 [PEG2KD]32 [Example 55], in data set [2], the “plasma T½” value is 75.35 ± 9.3 h and the “% of 3H dose excreted in total urine” value is reported as 3.1 ± 1.9%. Turning to BHALys[Lys]16 [PEG200]32 [Example 52], in data set [2], the “plasma T½” value is listed as 0.72 ± 0.03 h and the “% of 3H dose excreted in total urine” value is recorded as 80.4 ± 13.6%. Taken in the same sequence, the figures for BHALys[Lys]16 [PEG570]32 [Example 53] were 9.45 ± 0.42 h and 42.9 ± 2.7%. For “BHALys[Lys]16 [Su(NPN)2]32 [γ-CO-MTX-α-OtBu]32 [COPEG12]32 [Example 59]”, the “plasma T½” value in data set [2] was 23.7 ± 5.0 h. “BHALys[Lys]16 [Su(NPN)2]32 [γ-CO-MTX-α-OtBu]32 [COPEG24]32 [Example 62]”: in data set [2], the “plasma T½” value is reported as 51.4 ± 2.7 h. As for “BHALys[Lys]16 [α-CO-3,5-Ph(SO3Na)2]16[ε-CBz]16 [Example 40]”, the EC50 in data set [1] amounted to 3.2 µg/mL. For “BHALys[Lys]16 [α-CO-4-Ph(SO3Na)]16 [ε-CBz]16 [Example 41]”, the EC50 in data set [1] was 4.2 µg/mL.

Take “BHALys[Lys]16 [α-COCH2O-3,6-Naph(SO3Na)2]16 [ε-CBz]16 [Example 39]”: the EC50 in data set [1] was found to be 2.4 µg/mL. Regarding “BHALys[Lys]16[COCH2O-3,6-Naph(SO3Na)2]32 [SPL7013, reference compound]”, the HIV replication result in data set [3] is on record as “inhibits HIV replication”. In addition, the EC50 in data set [1] is 1.5 µg/mL. In data set [1], “DAH [Lys]8[α-CO-3,5-Ph(SO3Na)2]8[ε-COC5H12]8 [Example 32]” yielded a 50% effective concentration (EC50) of 5.8 µg/mL. “DAH [Lys]8[α-COCH2O-3,6-Naph(SO3Na)2]8[ε-COC5H12]8 [Example 33]” showed a concentration for a half-maximal effect (EC50) in data set [1] of 0.71 µg/mL.

The record behind these values is patent US8258259B2, “Macromolecular compounds having controlled stoichiometry” (Starpharma Pty Limited, priority 2005, dated 2012).
